Experimental data: patent US8268786B2, “Anti-cancer tocotrienol analogues and associated methods” (First Tech International Limited, priority 2009, dated 2012)
Like-named read-outs stand apart in the source and are kept apart here.

Experiments:
[1] = tested on: ER-negative human breast cancer cells MDA-MB-231; test: MTT antiproliferative assay, MDA-MB-231 cells; type: cell-based; conditions: for IC50: Homo sapiens
Procedure: (§1) For each of the assays performed the compounds were dissolved in aqueous culture media by binding the compounds with bovine serum albumin (BSA).
(§2) An amount of each compound appropriate for the desired final compound concentration was placed in a 1.5 mL screw top glass vial and dissolved in 100 μL of 100% ethanol. Once dissolved, this ethanol/compound solution was added to a small volume of sterile 10% BSA in water and incubated overnight at 37° C. […] Ethanol was added to all treatment media such that the final ethanol concentration was the same in all treatment groups within a given experiment and was always less than 0.1%. Although the examples provided have been described in conjunction with specified amounts of ethanol and other compounds it should be understood that the invention is applicable to embodiments not having those limited concentration.
(§3) The cell growth of MCF7 (Example 24) and MDA-MB-231 (Example 25) cell lines was measured using the MTT assay procedures described above and an MTT assay kit (TACS™, Trevogen®, Inc., Gaithersburg, Md.). After passing the cells for 3-4 times, growing cells were incubated in a 96-well plate at a density of 8×10^3 cells per well, and allowed to attach for 24 hours. Complete growth medium was then replaced with 100 μL of RPMI serum free medium (GIBCO-Invitrogen, NY) containing various doses (20, 10, 5, 2 μM) of the tested compound and the culture continued at 37° C. under 5% CO2. After 96 hours, the incubated cells were treated with MTT solution (10 μL/well) at 37° C. for 4 hours. The color reaction was stopped by the addition of solubilization/stop solution (100 μL/well). The cells continued to be incubated at 37° C. to completely dissolve the formazan product. Absorbance of the samples was determined at 570 nm with an ELISA plate reader (BioTek, VT). Absorbance readings were converted to estimated cell numbers based on a standard curve prepared by plating various concentration of cells, as determined by hemocytometer, and measuring the absorbance of those cells at the start of each experiment. The IC50 value of each compound was calculated using nonlinear regression (curve fit) of log concentration versus the number of cells/well implemented using GraphPad Prism 5.0 program. The procedure was identical for both human breast cancer cell lines MCF7 and MDA-MB-231.

[2] = tested on: ER-positive human breast cancer cells MCF7; test: MTT antiproliferative assay, MCF7 cells; type: cell-based; conditions: for IC50: Homo sapiens
Procedure: as §1, §2, §3

[3] = tested on: highly malignant+SA mouse mammary epithelial cell line; test: MTT antiproliferative assay, +SA mouse mammary epithelial cells; type: cell-based
Procedure: The antiproliferative effects of Compounds 1-21 were tested using 3-(4,5-dimethylthiazol-2-yl)-2,5-diphenyl tetrasolium bromide (MTT) colorimetric assay utilizing cultures of the highly malignant+SA mouse mammary epithelial cell line maintained on serum-free media and containing 10 ng/mL epidermal growth factor (EGF) and 10 μg/mL insulin as mitogens using 24-well culture plates (6 wells/group) by MTT assay.
Cells were then divided into different treatment groups and given fresh control or treatment media every day. In growth inhibition studies, (IC50), +SA cells were treated with various doses of individual tocotrienol or tocotrienol derivatives for 4 days and then the viable cell number was determined using the MTT assay. Optical density of each sample was read at 570 nm on a microplate reader (SpectraCount, Packard BioScience Company, Meriden, Conn.) against a blank prepared from cell-free cultures. The number of cells/well was calculated against a standard curve prepared by plating various concentrations of cells, as determined by hemocytometer, at the start of each experiment. See McIntyre referenced above.
as §1, §2

[4] = tested on: highly metastatic breast cancer cell line MDA-MB-231; test: BME Cell Invasion Assay (Boyden chamber, calcein-AM); type: cell-based, human; conditions: MDA-MB-231, 5 μM
Procedure: Anti-Invasion Assays were performed to measure the anti-invasive properties of Compounds 1-21 using a 96 well basement membrane extract “BME” Cell Invasion Assay (Cultrex®, Trevogen, Catalog# 3455-096-K) with the highly metastatic breast cancer cell line MDA-MB-231. This assay employs a simplified Boyden Chamber design with a polyethylene terephthalate membrane (8 μm). Detection of cell invasion is quantified using calcein-AM. Cells internalize calcein-AM and intracellular esterases cleave the acetomethylester moiety to generate free calcein. Free calcein fluoresces brightly, and this fluorescence may be used to quantify the number of cells that have invaded across BME. (See Tamilarasan and Borghesani, referenced above)
About […] of basement membrane extract (BME, 1×) coat was added per well. After overnight incubation at 37° C. in a 5% CO2 incubator, 50,000/50 μL of MDA-MB-231 cells in serum free RPMI medium were added to the top chamber of each well, which contained the tested compound at a treatment concentration of 5 μM. About 150 μL of RPMI medium was added to the lower chamber, which contained 10% fetal bovine serum, penicillin/streptomycin, and fibronectin (1 μL/mL) and N-formyl-met-leu-phe (10 nM) as chemoattractants. Cells were allowed to migrate to the lower chamber at 37° C. in a CO2 incubator. After 24 h, the top and bottom chambers were aspirated and washed with a washing buffer solution. About 100 μL of cell dissociation solution/Calcein-AM solution was added to the bottom chamber and incubated for 1 hour at 37° C. in a CO2 incubator. The cells internalized calcein-AM, and the intracellular esterases cleaved the acetomethylester (AM) moiety to generate free calcein. Fluorescence of the samples was determined at 485 nm excitation; 520 nm emissions were measured using a plate reader (BioTek, VT). The numbers of cells that invaded through the BME coat were calculated using a standard curve.
Differences among the various treatment groups were determined by analysis of variance (ANOVA) followed by Dunnett's t-test. Differences were considered to be statistically significant at a value of <0.05, as compared to vehicle treated controls.

[5] = MDA-MB-231, 96 h, read-out: MDA-MB-231 IC50 μM
[6] = MCF7, 96 h, read-out: MCF7 IC50 μM

## CC(C)=CCC/C(C)=C/CC/C(C)=C/CC[C@]1(C)CCc2cc(OC(=O)NS(=O)(=O)c3ccc(C)cc3)c(C)c(C)c2O1 [Compound 8, (R)-2,7,8-trimethyl-2-((3E,7E)-4,8,12-trimethyltrideca-3,7,11-trienyl)chroman-6-yl tosylcarbamate]
[1]; [5]
  IC50: > 10 µM
[2]; [6]
  IC50: 5.1 µM
[2]; MCF7, read-out: IC50 values (range)
  IC50: 5 to 10 µM
[2]; MCF7, 4 and 10 versus Compound 1, 8 versus Compound 2
  potency relative to parent natural tocotrienol: ~3 fold
[3]; +SA cells, versus Compound 2
  activity relative to parent γ-tocotrienol (2): ~2 fold
[3]; Mus musculus, +SA cell, 96 h
  IC50: 2000 nM

## CC(C)=CCC/C(C)=C/CC/C(C)=C/CC[C@]1(C)CCc2cc(OC(=O)NS(=O)(=O)c3ccc(C)cc3)cc(C)c2O1 [Compound 9, (R)-2,8-dimethyl-2-((3E,7E)-4,8,12-trimethyltrideca-3,7,11-trienyl)chroman-6-yl tosylcarbamate]
[1]; [5]
  IC50: 6.6 µM
[1]; MDA-MB-231, read-out: IC50 (range)
  IC50: 5 to 10 µM
[1]; MDA-MB-231
  antiproliferative activity (in words): improved activities
[4]
  anti-invasive activity (in words): more active than their natural tocotrienol parent compounds
[2]; [6]
  IC50: > 10 µM
[3]; +SA cells
  antiproliferative activity (in words): activity better than that of its parent tocotrienol
